Test results as given in the supplement of paper PMC10307832.

How the values were obtained:
Assay in all cases: relative viability (nuclei count vs DMSO), 5 days (fraction); higher = more cells survive
NCI-H1355 = test system: NCI-H1355
Summary of the method: (§1)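 Lung cancer cell lines, seeded in 1536-well plates, were treated the following day by pin tool with a single drug or with five library-drug doses (not always all listed) in √10 steps on top of a fixed anchor-drug dose. Cells were fixed and nuclei stained in one step after 5 days, and nuclei were counted. Relative viability is the nuclei count for treated wells divided by that for vehicle wells, reported as medians of duplicate plates.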

A-427 = test system: A-427
Summary of the method: as §1

NCI-H2228 = test system: NCI-H2228
Summary of the method: as §1

PC-3 [JPC-3] = test system: PC-3 [JPC-3]
Summary of the method: as §1

LCLC-97TM1 = test system: LCLC-97TM1
Summary of the method: as §1

LK-2 = test system: LK-2
Summary of the method: as §1

NCI-H1915 = test system: NCI-H1915
Summary of the method: as §1

NCI-H838 = test system: NCI-H838
Summary of the method: as §1

NCI-H1666 = test system: NCI-H1666
Summary of the method: as §1

PC-14 = test system: PC-14
Summary of the method: as §1

NCI-H2087 = test system: NCI-H2087
Summary of the method: as §1

NCI-H358 = test system: NCI-H358
Summary of the method: as §1

NCI-H1792 = test system: NCI-H1792
Summary of the method: as §1

ABC-1 = test system: ABC-1
Summary of the method: as §1

UMC-11 = test system: UMC-11
Summary of the method: as §1

NCI-H661 = test system: NCI-H661
Summary of the method: as §1

NCI-H322M = test system: NCI-H322M
Summary of the method: as §1

CAL-12T = test system: CAL-12T
Summary of the method: as §1

SK-MES-1 = test system: SK-MES-1
Summary of the method: as §1

NCI-H1651 = test system: NCI-H1651
Summary of the method: as §1

NCI-H1395 = test system: NCI-H1395
Summary of the method: as §1

NCI-H2085 = test system: NCI-H2085
Summary of the method: as §1

H3255 = test system: H3255
Summary of the method: as §1

O=C(O)CCCCC(CCSCc1ccccc1)SCc1ccccc1 (configuration not stated) [CPI-613] + Cc1nc(Nc2ncc(C(=O)Nc3c(C)cccc3Cl)s2)cc(N2CCN(CCO)CC2)n1 [Dasatinib] (partner 0.075 µM)
relative viability (NCI-H1355; first compound 5 µM): 0.682 | relative viability (NCI-H1355; first compound 15.81 µM): 0.697 | relative viability (NCI-H1355; first compound 50 µM): 0.701 | relative viability (NCI-H1355; first compound 158.11 µM): 0.53 | relative viability (NCI-H1355; first compound 500 µM): 0.375 | relative viability (A-427; first compound 5 µM): 0.684 | relative viability (A-427; first compound 15.81 µM): 0.765 | relative viability (A-427; first compound 50 µM): 0.547 | relative viability (A-427; first compound 158.11 µM): 0.365 | relative viability (A-427; first compound 500 µM): 0.131 | relative viability (NCI-H2228; first compound 5 µM): 0.559 | relative viability (NCI-H2228; first compound 15.81 µM): 0.469 | relative viability (NCI-H2228; first compound 50 µM): 0.437 | relative viability (NCI-H2228; first compound 158.11 µM): 0.231 | relative viability (NCI-H2228; first compound 500 µM): 0.0527 | relative viability (PC-3 [JPC-3]; first compound 5 µM): 0.903 | relative viability (PC-3 [JPC-3]; first compound 15.81 µM): 0.948 | relative viability (PC-3 [JPC-3]; first compound 50 µM): 0.909 | relative viability (PC-3 [JPC-3]; first compound 158.11 µM): 0.879 | relative viability (PC-3 [JPC-3]; first compound 500 µM): 0.348 | relative viability (LCLC-97TM1; first compound 5 µM): 0.843 | relative viability (LCLC-97TM1; first compound 15.81 µM): 0.901 | relative viability (LCLC-97TM1; first compound 50 µM): 0.791 | relative viability (LCLC-97TM1; first compound 158.11 µM): 0.634 | relative viability (LCLC-97TM1; first compound 500 µM): 0.0334 | relative viability (LK-2; first compound 5 µM): 0.241 | relative viability (LK-2; first compound 15.81 µM): 0.279 | relative viability (LK-2; first compound 50 µM): 0.252 | relative viability (LK-2; first compound 158.11 µM): 0.254 | relative viability (LK-2; first compound 500 µM): 0.195 | relative viability (NCI-H1915; first compound 5 µM): 0.294 | relative viability (NCI-H1915; first compound 15.81 µM): 0.244 | relative viability (NCI-H1915; first compound 50 µM): 0.245 | relative viability (NCI-H1915; first compound 158.11 µM): 0.228 | relative viability (NCI-H1915; first compound 500 µM): 0.169 | relative viability (NCI-H838; first compound 5 µM): 0.285 | relative viability (NCI-H838; first compound 15.81 µM): 0.237 | relative viability (NCI-H838; first compound 50 µM): 0.286 | relative viability (NCI-H838; first compound 158.11 µM): 0.261 | relative viability (NCI-H838; first compound 500 µM): 0.243 | relative viability (NCI-H1666; first compound 5 µM): 0.808 | relative viability (NCI-H1666; first compound 15.81 µM): 0.858 | relative viability (NCI-H1666; first compound 50 µM): 0.749 | relative viability (NCI-H1666; first compound 158.11 µM): 0.386 | relative viability (NCI-H1666; first compound 500 µM): 0.18 | relative viability (PC-14; first compound 5 µM): 0.237 | relative viability (PC-14; first compound 15.81 µM): 0.232 | relative viability (PC-14; first compound 50 µM): 0.247 | relative viability (PC-14; first compound 158.11 µM): 0.0644 | relative viability (PC-14; first compound 500 µM): 0.0134 | relative viability (NCI-H2087; first compound 5 µM): 0.809 | relative viability (NCI-H2087; first compound 15.81 µM): 0.886 | relative viability (NCI-H2087; first compound 50 µM): 0.792 | relative viability (NCI-H2087; first compound 158.11 µM): 0.196 | relative viability (NCI-H2087; first compound 500 µM): 0.023 | relative viability (NCI-H358; first compound 15.81 µM): 0.145 | relative viability (NCI-H358; first compound 50 µM): 0.146 | relative viability (NCI-H358; first compound 158.11 µM): 0.157 | relative viability (NCI-H358; first compound 500 µM): 0.0248 | relative viability (NCI-H1792; first compound 5 µM): 0.772 | relative viability (NCI-H1792; first compound 15.81 µM): 0.748 | relative viability (NCI-H1792; first compound 50 µM): 0.789 | relative viability (NCI-H1792; first compound 158.11 µM): 0.669 | relative viability (NCI-H1792; first compound 500 µM): 0.766 | relative viability (ABC-1; first compound 5 µM): 0.561 | relative viability (ABC-1; first compound 50 µM): 0.527 | relative viability (ABC-1; first compound 158.11 µM): 0.232 | relative viability (ABC-1; first compound 500 µM): 0.196 | relative viability (UMC-11; first compound 5 µM): 0.444 | relative viability (UMC-11; first compound 15.81 µM): 0.417 | relative viability (UMC-11; first compound 50 µM): 0.482 | relative viability (UMC-11; first compound 158.11 µM): 0.144 | relative viability (UMC-11; first compound 500 µM): 0.0883 | relative viability (NCI-H661; first compound 5 µM): 0.863 | relative viability (NCI-H661; first compound 15.81 µM): 0.83 | relative viability (NCI-H661; first compound 50 µM): 0.798 | relative viability (NCI-H661; first compound 158.11 µM): 0.312 | relative viability (NCI-H661; first compound 500 µM): 0.155 | relative viability (NCI-H322M; first compound 5 µM): 0.248 | relative viability (NCI-H322M; first compound 15.81 µM): 0.245 | relative viability (NCI-H322M; first compound 50 µM): 0.257 | relative viability (NCI-H322M; first compound 158.11 µM): 0.23 | relative viability (NCI-H322M; first compound 500 µM): 0.0545 | relative viability (CAL-12T; first compound 5 µM): 0.398 | relative viability (CAL-12T; first compound 15.81 µM): 0.454 | relative viability (CAL-12T; first compound 50 µM): 0.263 | relative viability (CAL-12T; first compound 158.11 µM): 0.0331 | relative viability (CAL-12T; first compound 500 µM): 0.0093 | relative viability (SK-MES-1; first compound 5 µM): 0.393 | relative viability (SK-MES-1; first compound 15.81 µM): 0.428 | relative viability (SK-MES-1; first compound 50 µM): 0.432 | relative viability (SK-MES-1; first compound 158.11 µM): 0.125 | relative viability (SK-MES-1; first compound 500 µM): 0.0807 | relative viability (NCI-H1651; first compound 5 µM): 0.348 | relative viability (NCI-H1651; first compound 15.81 µM): 0.387 | relative viability (NCI-H1651; first compound 50 µM): 0.416 | relative viability (NCI-H1651; first compound 158.11 µM): 0.282 | relative viability (NCI-H1651; first compound 500 µM): 0.123 | relative viability (NCI-H1395; first compound 5 µM): 0.397 | relative viability (NCI-H1395; first compound 15.81 µM): 0.352 | relative viability (NCI-H1395; first compound 50 µM): 0.414 | relative viability (NCI-H1395; first compound 158.11 µM): 0.409 | relative viability (NCI-H1395; first compound 500 µM): 0.358 | relative viability (NCI-H2085; first compound 5 µM): 0.267 | relative viability (NCI-H2085; first compound 15.81 µM): 0.266 | relative viability (NCI-H2085; first compound 50 µM): 0.255 | relative viability (NCI-H2085; first compound 158.11 µM): 0.242 | relative viability (NCI-H2085; first compound 500 µM): 0.257 | relative viability (H3255; first compound 5 µM): 0.408 | relative viability (H3255; first compound 15.81 µM): 0.307 | relative viability (H3255; first compound 50 µM): 0.346 | relative viability (H3255; first compound 500 µM): 0.335
